Results published in PubChem BioAssay AID1918935 (Molecular Pharmacology Branch, DTP, NCI, 2023).

Test system: 324938-238-R-J1-PDC complex spheroid viability
Assay: Anticancer human tumor 324938-238-R-J1-PDC patient-derived bladder carcinoma cell line growth inhibition
Details: for IC50: curve of first compound; for viability, T/C: stronger effect = lower value
Summary of the method: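 Complex spheroids of tumor cells with HUVEC and human MSCs, exposed to iadademstat combined with other agents. Each agent tested in half-log steps from near clinical Cmax (else 10 microM top), DMSO ≤0.25%.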

[1] = second compound 0.1 µM, first compound 0.000316 µM
[2] = second compound 0.1 µM, first compound 0.001 µM
[3] = second compound 0.1 µM, first compound 0.00316 µM
[4] = second compound 0.1 µM, first compound 0.01 µM
[5] = second compound 0.1 µM, first compound 0.0316 µM
[6] = second compound 0.1 µM, first compound 0.1 µM
[7] = second compound 0.316 µM, first compound 0.000316 µM
[8] = second compound 0.316 µM, first compound 0.001 µM
[9] = second compound 0.316 µM, first compound 0.00316 µM
[10] = second compound 0.316 µM, first compound 0.01 µM
[11] = second compound 0.316 µM, first compound 0.0316 µM
[12] = second compound 0.316 µM, first compound 0.1 µM
[13] = second compound 1 µM, first compound 0.000316 µM
[14] = second compound 1 µM, first compound 0.001 µM
[15] = second compound 1 µM, first compound 0.00316 µM
[16] = second compound 1 µM, first compound 0.01 µM
[17] = second compound 1 µM, first compound 0.0316 µM
[18] = second compound 1 µM, first compound 0.1 µM
[19] = second compound 3.16 µM, first compound 0.000316 µM
[20] = second compound 3.16 µM, first compound 0.001 µM
[21] = second compound 3.16 µM, first compound 0.00316 µM
[22] = second compound 3.16 µM, first compound 0.01 µM
[23] = second compound 3.16 µM, first compound 0.0316 µM
[24] = second compound 3.16 µM, first compound 0.1 µM
[25] = second compound 10 µM, first compound 0.000316 µM
[26] = second compound 10 µM, first compound 0.001 µM
[27] = second compound 10 µM, first compound 0.00316 µM
[28] = second compound 10 µM, first compound 0.01 µM
[29] = second compound 10 µM, first compound 0.0316 µM
[30] = second compound 10 µM, first compound 0.1 µM
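Note: spheroids also contain HUVEC and human MSCs and agents combined with iadademstat; spheroids exposed to agents for 7 days before readout.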

CC(C)CC(NC(=O)C(Cc1ccccc1)NC(=O)c1cnccn1)B(O)O (stereo not given) + NC1CC1c1ccc(-c2cccc(O)c2)cc1
IC50 (second compound 0.1 µM): 0.458 nM
IC50 (second compound 0.316 µM): 0.404 nM
IC50 (second compound 1 µM): 0.364 nM
IC50 (second compound 3.16 µM): 0.389 nM
IC50 (second compound 10 µM): 0.34 nM
viability, T/C [1]: 68.2%
viability, T/C [2]: 12.1%
viability, T/C [3]: 0.5%
viability, T/C [4]: 2.29%
viability, T/C [5]: 0.55%
viability, T/C [6]: 0.16%
viability, T/C [7]: 62%
viability, T/C [8]: 5.56%
viability, T/C [9]: 0.25%
viability, T/C [10]: 0.3%
viability, T/C [11]: 0.26%
viability, T/C [12]: 0.14%
viability, T/C [13]: 56%
viability, T/C [14]: 6.79%
viability, T/C [15]: 0.15%
viability, T/C [16]: 0.61%
viability, T/C [17]: 0.07%
viability, T/C [18]: 0.17%
viability, T/C [19]: 59.2%
viability, T/C [20]: 7.68%
viability, T/C [21]: 0.39%
viability, T/C [22]: 0.28%
viability, T/C [23]: 0.28%
viability, T/C [24]: 0.14%
viability, T/C [25]: 53.1%
viability, T/C [26]: 4.57%
viability, T/C [27]: 0.15%
viability, T/C [28]: 0.15%
viability, T/C [29]: 0.16%
viability, T/C [30]: 0.21%

CC(C)CC(NC(=O)CNC(=O)c1cc(Cl)ccc1Cl)B1OC(=O)CC(CC(=O)O)(C(=O)O)O1 (stereo not given) + NC1CC1c1ccc(-c2cccc(O)c2)cc1
IC50 (second compound 0.1 µM): 1.65 nM
IC50 (second compound 0.316 µM): 1.39 nM
IC50 (second compound 1 µM): 1.39 nM
IC50 (second compound 3.16 µM): 1.36 nM
IC50 (second compound 10 µM): 1.18 nM
viability, T/C [1]: 94.4%
viability, T/C [2]: 68.7%
viability, T/C [3]: 25.7%
viability, T/C [4]: 5.88%
viability, T/C [5]: 3.13%
viability, T/C [6]: 0.16%
viability, T/C [7]: 73%
viability, T/C [8]: 59.3%
viability, T/C [9]: 26.3%
viability, T/C [10]: 4.54%
viability, T/C [11]: 0.95%
viability, T/C [12]: 0.15%
viability, T/C [13]: 78.3%
viability, T/C [14]: 61.5%
viability, T/C [15]: 21.6%
viability, T/C [16]: 4.36%
viability, T/C [17]: 0.4%
viability, T/C [18]: 1.08%
viability, T/C [19]: 77.5%
viability, T/C [20]: 58.5%
viability, T/C [21]: 26.3%
viability, T/C [22]: 5.45%
viability, T/C [23]: 0.71%
viability, T/C [24]: 1.92%
viability, T/C [25]: 67.7%
viability, T/C [26]: 54.7%
viability, T/C [27]: 20.6%
viability, T/C [28]: 2.92%
viability, T/C [29]: 0.54%
viability, T/C [30]: 0.22%

Nc1ccccc1NC(=O)c1ccc(CNC(=O)OCc2cccnc2)cc1 + NC1CC1c1ccc(-c2cccc(O)c2)cc1
IC50 (second compound 0.1 µM): 501 nM
IC50 (second compound 0.316 µM): 437 nM
IC50 (second compound 1 µM): 487 nM
IC50 (second compound 3.16 µM): 489 nM
IC50 (second compound 10 µM): 401 nM
viability, T/C (second compound 0.1 µM, first compound 0.00949 µM): 86.6%
viability, T/C (second compound 0.1 µM, first compound 0.03 µM): 87.6%
viability, T/C (second compound 0.1 µM, first compound 0.0949 µM): 70.2%
viability, T/C (second compound 0.1 µM, first compound 0.3 µM): 62.6%
viability, T/C (second compound 0.1 µM, first compound 0.949 µM): 36.7%
viability, T/C (second compound 0.1 µM, first compound 3 µM): 7.26%
viability, T/C (second compound 0.316 µM, first compound 0.00949 µM): 83.8%
viability, T/C (second compound 0.316 µM, first compound 0.03 µM): 80.1%
viability, T/C (second compound 0.316 µM, first compound 0.0949 µM): 71.7%
viability, T/C (second compound 0.316 µM, first compound 0.3 µM): 56.1%
viability, T/C (second compound 0.316 µM, first compound 0.949 µM): 35.9%
viability, T/C (second compound 0.316 µM, first compound 3 µM): 5.68%
viability, T/C (second compound 1 µM, first compound 0.00949 µM): 67.2%
viability, T/C (second compound 1 µM, first compound 0.03 µM): 76%
viability, T/C (second compound 1 µM, first compound 0.0949 µM): 66.7%
viability, T/C (second compound 1 µM, first compound 0.3 µM): 56.3%
viability, T/C (second compound 1 µM, first compound 0.949 µM): 39.5%
viability, T/C (second compound 1 µM, first compound 3 µM): 3.75%
viability, T/C (second compound 3.16 µM, first compound 0.00949 µM): 76.7%
viability, T/C (second compound 3.16 µM, first compound 0.03 µM): 67%
viability, T/C (second compound 3.16 µM, first compound 0.0949 µM): 70.4%
viability, T/C (second compound 3.16 µM, first compound 0.3 µM): 59.2%
viability, T/C (second compound 3.16 µM, first compound 0.949 µM): 37.6%
viability, T/C (second compound 3.16 µM, first compound 3 µM): 5.73%
viability, T/C (second compound 10 µM, first compound 0.00949 µM): 63.2%
viability, T/C (second compound 10 µM, first compound 0.03 µM): 66.1%
viability, T/C (second compound 10 µM, first compound 0.0949 µM): 68.2%
viability, T/C (second compound 10 µM, first compound 0.3 µM): 51.2%
viability, T/C (second compound 10 µM, first compound 0.949 µM): 36.4%
viability, T/C (second compound 10 µM, first compound 3 µM): 6.9%

O=C(c1cc(Cc2n[nH]c(=O)c3ccccc23)ccc1F)N1CCN(C(=O)C2CC2)CC1 + NC1CC1c1ccc(-c2cccc(O)c2)cc1
IC50 (second compound 0.1 µM): 2150 nM
IC50 (second compound 0.316 µM): 1980 nM
IC50 (second compound 1 µM): 917 nM
IC50 (second compound 3.16 µM): 1500 nM
IC50 (second compound 10 µM): 1220 nM
viability, T/C [5]: 89.8%
viability, T/C [6]: 80.6%
viability, T/C (second compound 0.1 µM, first compound 0.316 µM): 72.4%
viability, T/C (second compound 0.1 µM, first compound 1 µM): 61.4%
viability, T/C (second compound 0.1 µM, first compound 3.16 µM): 43.3%
viability, T/C (second compound 0.1 µM, first compound 10 µM): 33.9%
viability, T/C [11]: 87.8%
viability, T/C [12]: 78.5%
viability, T/C (second compound 0.316 µM, first compound 0.316 µM): 77.1%
viability, T/C (second compound 0.316 µM, first compound 1 µM): 62.7%
viability, T/C (second compound 0.316 µM, first compound 3.16 µM): 40.4%
viability, T/C (second compound 0.316 µM, first compound 10 µM): 36.3%
viability, T/C [17]: 74.2%
viability, T/C [18]: 74.2%
viability, T/C (second compound 1 µM, first compound 0.316 µM): 64.4%
viability, T/C (second compound 1 µM, first compound 1 µM): 48%
viability, T/C (second compound 1 µM, first compound 3.16 µM): 40.3%
viability, T/C (second compound 1 µM, first compound 10 µM): 34.1%
viability, T/C [23]: 68.2%
viability, T/C [24]: 74%
viability, T/C (second compound 3.16 µM, first compound 0.316 µM): 77.7%
viability, T/C (second compound 3.16 µM, first compound 1 µM): 56%
viability, T/C (second compound 3.16 µM, first compound 3.16 µM): 41.3%
viability, T/C (second compound 3.16 µM, first compound 10 µM): 36.2%
viability, T/C [29]: 73.1%
viability, T/C [30]: 66.7%
viability, T/C (second compound 10 µM, first compound 0.316 µM): 66.3%
viability, T/C (second compound 10 µM, first compound 1 µM): 49.9%
viability, T/C (second compound 10 µM, first compound 3.16 µM): 43.8%
viability, T/C (second compound 10 µM, first compound 10 µM): 38.2%
